According to patent US7141570B2, “N-aryl-2-oxazolidinone-5-carboxamides and their derivatives” (Pharmacia & Upjohn Company, priority 2002, dated 2006):

Row | SMILES | melting point
1 | CC(=O)NC[C@H]1CN(c2ccc(N3CCN(C(=O)CCC(=O)c4ccc(CNC(=O)CN(C)C)cc4)CC3)c(F)c2)C(=O)O1 [Example 22, N^1-(4-{4-[4-(4-{(5S)-5-[(Acetylamino)methyl]-2-oxo-1,3-oxazolidin-3-yl}-2-fluorophenyl)piperazin-1-yl]-4-oxobutanoyl}benzyl)-N^2,N^2-dimethylglycinamide] | 160 to 160.5 °C
2 | CCC(=S)NC[C@H]1CN(c2ccc(N3CCN(C(=O)CCC(=O)c4ccc(CN5CCOCC5)cc4)CC3)c(F)c2)C(=O)O1 [Example 16, N-({(5S)-3-[3-Fluoro-4-(4-{4-[4-(4-morpholinylmethyl)phenyl]-4-oxobutanoyl}-1-piperazinyl)phenyl]-2-oxo-1,3-oxazolidin-5-yl}methyl)propanethioamide] | 160 °C
3 | CCC(=S)NC[C@H]1CN(c2ccc(N3CCN(C(=O)COc4ccc(CN(C)C)cc4)CC3)c(F)c2)C(=O)O1 [Example 4, N-[((5S)-3{4-[4-({4-[(Dimethylamino)methyl]phenoxy}acetyl)piperazin-1-yl]-3-fluorophenyl}-2-oxo-1,3-oxazolidin-5-yl)methyl]propanethioamide] | 163 to 164 °C
4 | CCC(=S)NC[C@H]1CN(c2ccc(N3CCN(C(=O)COc4ccc(CN5CCOCC5)cc4)CC3)c(F)c2)C(=O)O1 [Example 7, N-({(5S)-3-[3-Fluoro-4-(4-{[4-(morpholin-4-ylmethyl)phenoxy]acetyl}piperazin-1-yl)phenyl]-2-oxo-1,3-oxazolidin-5-yl}methyl)propanethioamide] | 159 to 160 °C
5 | CC(=O)NC[C@H]1CN(c2ccc(N3CCN(C(=O)CCC(=O)c4ccc(Cl)cc4)CC3)c(F)c2)C(=O)O1 [Example 49, N-{[(5S)-3-(4-{4-[4-(4-Chlorophenyl)-4-oxobutanoyl]-1-piperazinyl}-3-fluorophenyl)-2-oxo-1,3-oxazolidin-5-yl]methyl}acetamide] | 208 to 209 °C
6 | CC(=O)NC[C@H]1CN(c2ccc(N3CCN(C(=O)CCC(=O)c4ccc(CN(C)C)cc4)CC3)c(F)c2)C(=O)O1 [Example 15, N-[((5S)-3-{4-[4-(4-{4-[(Dimethylamino)methyl]phenyl}-4-oxobutanoyl)-1-piperazinyl]-3-fluorophenyl}-2-oxo-1,3-oxazolidin-5-yl)methyl]acetamide] | 190 to 192 °C
7 | CC(=S)NC[C@H]1CN(c2ccc(N3CCN(C(=O)CCC(=O)c4ccc(Cl)cc4)CC3)c(F)c2)C(=O)O1 [Example 50, N-{[(5S)-3-(4-{4-[4-(4-chlorophenyl)-4-oxobutanoyl]-1-piperazinyl}-3-fluorophenyl)-2-oxo-1,3-oxazolidin-5-yl]methyl}ethanethioamide] | 215 to 216 °C (dec.)
8 | CN(C)Cc1ccc(C(=O)CCC(=O)N2CCN(c3ccc(N4C[C@H](CNC(=S)C5CC5)OC4=O)cc3F)CC2)cc1 [Example 14, N-[((5S)-3-{4-[4-(4-{4-[(Dimethylamino)methyl]phenyl}-4-oxobutanoyl)-1-piperazinyl]-3-fluorophenyl}-2-oxo-1,3-oxazolidin-5-yl)methyl]cyclopropanecarbothioamide] | 174 to 175 °C
9 | COc1ccc(CCCC(=O)N2CCN(c3ccc(N4C[C@H](CNC(C)=O)OC4=O)cc3F)CC2)cc1 [Example 41, N-{[(5S)-3-(3-Fluoro-4-{4-[4-(4-methoxyphenyl)butanoyl]piperazine-1-yl}phenyl)-2-oxo-1,3-oxazolidin-5-yl]methyl}acetamide] | 164 to 165 °C
10 | CC(=O)NC[C@H]1CN(c2ccc(N3CCN(C(=O)CCCc4ccc(NC(=O)CN)cc4)CC3)c(F)c2)C(=O)O1 [Example 60, N-(4-{4-[4-(4-{(5S)-5-[(Acetylamino)methyl]-2-oxo-1,3-oxazolidin-3-yl}-2-fluorophenyl)-1-piperazinyl]-4-oxobutyl}phenyl)-2-aminoacetamide] | 199 to 200 °C (dec.)
11 | CC(=O)NC[C@H]1CN(c2ccc(N3CCN(C(=O)CN4C(=O)c5ccc(N)cc5C4=O)CC3)c(F)c2)C(=O)O1 [Example 70, N-{[(5S)-3-(4-{4-[(5-Amino-1,3-dioxo-1,3-dihydro-2H-isoindol-2-yl)acetyl]piperazin-1-yl}-3-fluorophenyl)-2-oxo-1,3-oxazolidin-5-yl]methyl}acetamide] | 241 to 243 °C (dec.)
12 | CC(=O)NC[C@H]1CN(c2ccc(N3CCN(C(=O)CCCc4ccc(O)cc4)CC3)c(F)c2)C(=O)O1 [Example 42, N-{[(5S)-3-(3-Fluoro-4-{4-[4-(4-hydroxyphenyl)butanoyl]piperazin-1-yl}phenyl)-2-oxo-1,3-oxazolidin-5-yl]methyl}acetamide] | 119 to 120 °C (dec.)
13 | CC(=O)NC[C@H]1CN(c2ccc(N3CCN(C(=O)CCC(=O)c4ccc(Br)cc4)CC3)c(F)c2)C(=O)O1 [Example 44, N-{[(5S)-3-(4-{4-[4-(4-Bromophenyl)-4-oxobutanoyl]-1-piperazinyl}-3-fluorophenyl)-2-oxo-1,3-oxazolidin-5-yl]methyl}acetamide] | 197 to 198 °C
14 | CCC(=S)NC[C@H]1CN(c2ccc(N3CCN(C(=O)COc4ccc(CN(CC)CC)cc4)CC3)c(F)c2)C(=O)O1 [Example 1, N-[((5S)-3-{4-[4-({4-[(Diethylamino)methyl]phenoxy}acetyl)piperazin-1-yl]-3-fluorophenyl}-2-oxo-1,3-oxazolidin-5-yl)methyl]propanethioamide] | 98 °C
